These results are taken from patent US11434258B2, “Compounds (immunorhelins)” (ISR IMMUNE SYSTEM REGULATION HOLDING AB (PUBL), priority 2017, dated 2022).

Where a name gives a salt, the structure may show the parent alone. Non-standard residues stand in square brackets, D forms with d. Residues, ends and D or L forms follow the SMILES beside them. pGlu = O=C1CC[C@@H](C(=O)O)N1

Data set [1] deals with T cells. The data set is described as follows: Immune stimulation assay: MHC class I expression on T cells (PBMCs, flow cytometry). In kind it is cell-based, human. The following applies: PBMCs from a healthy donor, with IL-2, 72 hours. As for the experimental part: FIG. 1: Expression of MHC class I after stimulation of T cells with increasing concentrations of GnRH II. PBMCs from a healthy donor was stimulated with GnRH II and IL-2 for 72 hours. Data points represent mean fluorescent intensity of MCH class I expression on CD4^+ T cells (blue triangles) or CD8^+ T cells (black squares) measured with flow cytometry.
(black). […] Data points represent mean fluorescent intensity of MCH class I expression on CD4^+ T cells (A) or CD8^+ T cells (B) measured with flow cytometry.
Human peripheral blood mononuclear cells (PBMCs) were purified from healthy donors with Ficoll-Hypaque density centrifugation. Cells were cultured in RPMI-1640 medium (Invitrogen) supplemented with 10% fetal bovine serum, 100 […], 100 μg/mL streptomycin and IL-2 (100 U/mL) for 72 hours in 37° C., 5% CO2.
A general note: A flow cytometer gives signals particle by particle.

The conditions of data set [2]: pH 7.4.

Regarding `NC(=O)CNC(=O)[C@@H]1CCCN1C(=O)[C@H](Cc1ccc(O)cc1)NC(=O)[C@H](Cc1c[nH]c2ccccc12)NC(=O)CNC(=O)[C@H](Cc1c[nH]cn1)NC(=O)[C@H](CO)NC(=O)[C@H](Cc1c[nH]c2ccccc12)NC(=O)[C@H](Cc1c[nH]cn1)NC(=O)[C@@H]1CCC(=O)N1` [GnRH II] ([pGlu]HWSHGWYPG-NH2), the “MHC class I expression on T cells” value in data set [1] is on record as “directly activates these cells”.

For the molecule `CCNC(=O)[C@@H]1CCCN1C(=O)[C@H](CCCNC(=N)N)NC(=O)[C@H](CC(C)C)NC(=O)[C@@H](CC(C)C)NC(=O)[C@H](Cc1ccc(O)cc1)NC(=O)[C@H](CO)NC(=O)[C@H](Cc1c[nH]c2ccccc12)NC(=O)[C@H](Cc1c[nH]cn1)NC(=O)[C@@H]1CCC(=O)N1` [Leuprorelin TFA], the Solubility grading in data set [2] is listed as 1.

As for `CCNC(=O)[C@@H]1CCCN1C(=O)[C@H](CCCNC(=N)N)NC(=O)[C@H](CC(C)C)NC(=O)[C@@H](CC(C)C)NC(=O)[C@H](Cc1ccc(O)cc1)NC(=O)[C@H](CO)NC(=O)[C@H](Cc1c[nH]c2ccccc12)NC(=O)[C@H](Cc1c[nH]cn1)NC(=O)[C@@H]1CCC(=O)N1` [Leuprorelin acetate], the Solubility grading in data set [2] is on record as 2.
